Assay results reported in US5053333A, “Protease” (M & D Research Co., Ltd., priority 1988, dated 1991).
Where two headings read alike, the source gives them in different places. Numbered stars: 1 amine (or outer) side, 2 acyl side, 3 side chain; on linkers, the order of the positions; unused ones are H or OH. Square brackets hold non-standard residues; d marks the D form. Peptide text beside a SMILES is read from it. * marks the point of attachment. Sta = CC(C)C[C@H](N)[C@@H](O)CC(=O)O; AMC = Cc1cc(=O)oc2cc(N*)ccc12; Suc = O=C(CCC(=O)[*:2])[*:1]; Isovaleryl = CC(C)CC(=O)*; Cbz = O=C(OCc1ccccc1)*; Boc = CC(C)(C)OC(=O)*; CO = O=C([*:1])[*:2]; OBn = c1ccc(CO*)cc1

Legend:
[1] = system: protease specific for basic amino acid residue from Sporobolomyces odrus IFO 1597; assay: Substrate specificity of Sporobolomyces protease with fluorescent substrates; type: biochemical; details: activity for Boc-Gln-Arg-Arg-MCA being 100; standard conditions
Protocol: A reaction mixture containing 50 μmol of tris hydrochloride buffer solution (pH 7.0), 10 mg of Lubrol PX, 0.5 μmol of calcium chloride, 0.1 μmol of Boc-Gln-Arg-Arg-MCA, wherein Boc represents a t-butyloxycalbonyl group while MCA represents 4-methylcoumarin-7-amide and the enzyme is allowed to react at 30° C. The fluorescence (excition wavelength: 380 nm, emission wavelength: 460 nm) originating from the 7-amino-4-methylcoumarin (AMC) thus formed is monitored. The amount of the enzyme capable of catalyzing the release of 1 nmol of AMC per one minute is defined as 1 U.
The activities of the enzyme for various fluorescent substrates were determined under standard reaction conditions.

[2] = system: Benz-I (protease specific for basic amino acid residue); assay: Substrate specificity of Benz-I with fluorescent substrates; type: biochemical, Kluyveromyces lactis IFO 1903; details: activity for Boc-Gln-Arg-Arg-MCA being 100; standard conditions
Protocol: (§1) 1 ml of a reaction mixture containing 50 μmol of Tris-hydrochloride buffer (pH 7.0), 10 mg of Lubrol PX, 0.5 μmol of calcium chloride, 0.1 μmol of Boc-Gln-Arg-Arg-MCA, wherein Boc represents a t-butyloxycarbonyl group while MCA represents 4-methylcoumarin-7-amide and the enzyme is allowed to react at 30° C. The fluorescence (excition wavelength: 380 nm, emmision wavelength: 460 nm) originating from the 7-amino-4-methylcoumarin (AMC) thus formed is monitored with the lapse of time. The amount of the enzyme activity capable of catalyzing the release of 1 n mol of AMC per one minute is defined as 1 U. The specific activity is represented by U per mg of protein. The amount of the protein is determined by measurement the absorbance at […] as E^1% of protein being assumed to be 10.
(§2) The activities of Benz-I and Benz-II were determined under standard conditions with the use of various fluorescent substrates. The activity for each substrate was expressed by relative activity with the activity for Boc-Gln-Arg-Arg-MCA being 100.

[3] = system: Benz-II (protease specific for basic amino acid residue); assay: Substrate specificity of Benz-II with fluorescent substrates; type: biochemical, Kluyveromyces lactis IFO 1903; details: activity for Boc-Gln-Arg-Arg-MCA being 100; standard conditions
Protocol: as §1, §2

[4] = system: Benz-I (protease specific for basic amino acid residue); assay: Behavior of Benz-I against various inhibitors (residual activity); type: biochemical, Kluyveromyces lactis IFO 1903
[5] = system: Benz-II (protease specific for basic amino acid residue); assay: Behavior of Benz-II against various inhibitors (residual activity); type: biochemical, Kluyveromyces lactis IFO 1903
[6] = system: protease specific for basic amino acid residue from Sporobolomyces odrus IFO 1597; assay: Behavior of Sporobolomyces protease against various inhibitors (residual activity); type: biochemical; details: 25° C. 30 minutes
[7] = inhibitor 10 μM, 25° C. 30 minutes, control lot = 100
[8] = inhibitor 1 mM, 25° C. 30 minutes, control lot = 100
[9] = inhibitor 0.1%, 25° C. 30 minutes, control lot = 100
[10] = inhibitor 0.2 mM, 25° C. 30 minutes, control lot = 100
[11] = inhibitor 5 mM, 25° C. 30 minutes, control lot = 100
[12] = inhibitor 4 M, 25° C. 30 minutes, control lot = 100

Cc1cc(=O)oc2cc(NC(=O)[C@@H]3CCCN3C(=O)CNC(=O)CCC(=O)O)ccc12 [Suc--Gly--Pro--MCA] (Suc-Gly-Pro-{AMC})
Activity (relative) for substrate [1]: 0%

Cc1cc(=O)oc2cc(NC(=O)[C@H](CCCNC(=N)N)NC(=O)[C@@H](NC(=O)[C@H](CC(C)C)NC(=O)OC(C)(C)C)[C@@H](C)O)ccc12 [Boc--Leu--Thr--Arg--MCA] (Boc-Leu-Thr-Arg-{AMC})
Relative activity of Benz-I for substrate [2]: 20.0 | Relative activity of Benz-II for substrate [3]: 13.9 | Activity (relative) for substrate [1]: 3%

Cc1cc(=O)oc2cc(NC(=O)[C@H](C)NC(=O)[C@@H]3CCCN3C(=O)[C@H](C)NC(=O)CCC(=O)O)ccc12 [Suc--Ala--Pro--Ala--MCA] (Suc-Ala-Pro-Ala-{AMC})
Activity (relative) for substrate [1]: 0%

CC(C)[C@H](NC(=O)[C@H](CCCNC(=N)N)NC(=O)N[C@@H](Cc1ccccc1)C(=O)O)C(=O)N[C@H](C=O)CCCNC(=N)N [antipain] ({Phe-CO}-Arg-Val-Arg-aldehyde)
Residual activity of Benz-I [4, 7]: 89 | Residual activity of Benz-II [5, 7]: 88 | relative activity (residual) ([6]; Ca2+ +, inhibitor 10 μM): 70%

Cc1cc(=O)oc2cc(NC(=O)[C@H](CCCNC(=N)N)NC(=O)c3ccccc3)ccc12 [Bz--Arg--MCA]
Activity (relative) for substrate [1]: 0%

CCN1C(=O)C=CC1=O [N-ethylmaleimide]
Residual activity of Benz-I [4, 8]: 101 | Residual activity of Benz-II [5, 8]: 94 | relative activity (residual) ([6]; Ca2+ +, inhibitor 1 mM): 125%

Cc1cc(=O)oc2cc(NC(=O)[C@@H](N)CC(C)C)ccc12 [Leu--MCA]
Activity (relative) for substrate [1]: < 1%

CCCCCCCCCCCCOS(=O)(=O)[O-].[Na+] [sodium dodecyl sulfate]
Residual activity of Benz-I [4, 9]: 94 | Residual activity of Benz-II [5, 9]: 91

Cc1ccc(S(=O)(=O)NC(CCCCN)C(=O)CCl)cc1 (stereo not drawn) [tosyllysine chloromethyl ketone]
Residual activity of Benz-I [4, 10]: 98 | Residual activity of Benz-II [5, 10]: 95 | relative activity (residual) ([6]; Ca2+ +, inhibitor 0.2 mM): 108%

N=C(N)c1ccccc1 [benzamidine]
Residual activity of Benz-I [4, 8]: 79 | Residual activity of Benz-II [5, 8]: 82 | relative activity (residual) ([6]; Ca2+ +, inhibitor 1 mM): 82%

Cc1cc(=O)oc2cc(NC(=O)[C@H](CCCNC(=N)N)NC(=O)[C@H](CCCNC(=N)N)NC(=O)CNC(=O)OC(C)(C)C)ccc12 [Boc--Gly--Arg--Arg--MCA]
Relative activity of Benz-I for substrate [2]: 19.8 | Relative activity of Benz-II for substrate [3]: 19.7 | Activity (relative) for substrate [1]: 32%

CCCCC(NC(=O)C=[N+]=[N-])C(=O)OC (racemic) [diazoacetyl-DL-norleucine methyl ester]
Residual activity of Benz-I [4, 11]: 85 | Residual activity of Benz-II [5, 11]: 73 | relative activity (residual) ([6]; Ca2+ +, inhibitor 5 mM): 72%

c1cnc2c(c1)ccc1cccnc12 [o-phenanthroline]
Residual activity of Benz-I [4, 8]: 96 | Residual activity of Benz-II [5, 8]: 86 | relative activity (residual) ([6]; Ca2+ --, inhibitor 1 mM): 91%

Cc1cc(=O)oc2cc(NC(=O)[C@H](CCCNC(=N)N)NC(=O)[C@@H]3CCCN3C(=O)[C@H](CC(=O)OCc3ccccc3)NC(=O)OC(C)(C)C)ccc12 [Boc--Asp(OBzl)--Pro--Arg--MCA] (Boc-Asp(OBn)-Pro-Arg-{AMC})
Relative activity of Benz-I for substrate [2]: 12.3 | Relative activity of Benz-II for substrate [3]: 7.8 | Activity (relative) for substrate [1]: 5%

CC(C)C[C@H](NC(=O)[C@@H](O)[C@H](N)Cc1ccccc1)C(=O)O [bestatin]
Residual activity of Benz-I [4, 7]: 95 | Residual activity of Benz-II [5, 7]: 97 | relative activity (residual) ([6]; Ca2+ +, inhibitor 10 μM): 97%

Cc1cc(=O)oc2cc(NC(=O)[C@H](CCCNC(=N)N)NC(=O)CNC(=O)[C@H](CC(C)C)NC(=O)OC(C)(C)C)ccc12 [Boc--Leu--Gly--Arg--MCA] (Boc-Leu-Gly-Arg-{AMC})
Activity (relative) for substrate [1]: 1%

Cc1cc(=O)oc2cc(NC(=O)[C@H](CCCNC(=N)N)NC(=O)[C@H](CCCCN)NC(=O)CNC(=O)OC(C)(C)C)ccc12 [Boc--Gly--Lys--Arg--MCA] (Boc-Gly-Lys-Arg-{AMC})
Relative activity of Benz-I for substrate [2]: 120 | Relative activity of Benz-II for substrate [3]: 123 | Activity (relative) for substrate [1]: 59%

CC(=O)N[C@@H](CC(C)C)C(=O)N[C@@H](CC(C)C)C(=O)N[C@H](C=O)CCCNC(=N)N [leupeptin]
Residual activity of Benz-I [4, 7]: 93 | Residual activity of Benz-II [5, 7]: 96 | relative activity (residual) ([6]; Ca2+ +, inhibitor 10 μM): 92%

Cc1cc(=O)oc2cc(NC(=O)[C@H](CCCCN)NC(=O)[C@H](CC(C)C)NC(=O)[C@@H](NC(=O)OC(C)(C)C)C(C)C)ccc12 [Boc--Val--Leu--Lys--MCA] (Boc-Val-Leu-Lys-{AMC})
Activity (relative) for substrate [1]: 0%

Cc1cc(=O)oc2cc(NC(=O)[C@H](CCCNC(=N)N)NC(=O)[C@H](CCCNC(=N)N)NC(=O)OCc3ccccc3)ccc12 [Z--Arg--Arg--MCA] (Cbz-Arg-Arg-{AMC})
Activity (relative) for substrate [1]: 0%

NC(=O)CI [iodoacetamide]
Residual activity of Benz-I [4, 8]: 92 | Residual activity of Benz-II [5, 8]: 87 | relative activity (residual) ([6]; Ca2+ +, inhibitor 1 mM): 96%

Cc1cc(=O)oc2cc(NC(=O)[C@H](CCCNC(=N)N)NC(=O)[C@@H]3CCCN3C(=O)[C@@H](NC(=O)OC(C)(C)C)C(C)C)ccc12 [Boc--Val--Pro--Arg--MCA] (Boc-Val-Pro-Arg-{AMC})
Relative activity of Benz-I for substrate [2]: 107 | Relative activity of Benz-II for substrate [3]: 88.0 | Activity (relative) for substrate [1]: 26%

CC(C)C[C@H](NC(=O)[C@H]1O[C@@H]1C(=O)O)C(=O)NCCCCNC(=N)N [E-64]
Residual activity of Benz-I [4, 7]: 99 | Residual activity of Benz-II [5, 7]: 96 | relative activity (residual) ([6]; Ca2+ +, inhibitor 10 μM): 100%

Cc1cc(=O)oc2cc(NC(=O)[C@H](CCCNC(=N)N)NC(=O)[C@H](Cc3ccccc3)NC(=O)[C@@H]3CCCN3)ccc12 [Pro--Phe--Arg--MCA] (H-Pro-Phe-Arg-{AMC})
Activity (relative) for substrate [1]: 0%

chymostatin
Residual activity of Benz-I [4, 7]: 98 | Residual activity of Benz-II [5, 7]: 99 | relative activity (residual) ([6]; Ca2+ +, inhibitor 10 μM): 98%

CC(C)CC(=O)N[C@H](C(=O)N[C@H](C(=O)N[C@@H](CC(C)C)[C@@H](O)CC(=O)N[C@@H](C)C(=O)N[C@@H](CC(C)C)[C@@H](O)CC(=O)O)C(C)C)C(C)C [pepstatin A] (Isovaleryl-VV[Sta]A[Sta]-OH)
Residual activity of Benz-I [4, 7]: 100 | Residual activity of Benz-II [5, 7]: 96 | relative activity (residual) ([6]; Ca2+ +, inhibitor 10 μM): 104%

O=S(=O)(F)Cc1ccccc1 [phenylmethanesulfonyl fluoride]
Residual activity of Benz-I [4, 8]: 107 | Residual activity of Benz-II [5, 8]: 103 | relative activity (residual) ([6]; Ca2+ +, inhibitor 1 mM): 112%

Cc1cc(=O)oc2cc(NC(=O)[C@H](Cc3ccc(O)cc3)NC(=O)[C@@H](NC(=O)[C@H](CC(C)C)NC(=O)[C@H](CC(C)C)NC(=O)CCC(=O)O)C(C)C)ccc12 [Suc--Leu--Leu--Val--Tyr--MCA] (Suc-LLVY-{AMC})
Activity (relative) for substrate [1]: 0%

O[C@H](CS)[C@H](O)CS (racemic) [dithiothreitol]
Residual activity of Benz-I [4, 8]: 96 | Residual activity of Benz-II [5, 8]: 128 | relative activity (residual) ([6]; Ca2+ +, inhibitor 1 mM): 97%

Cc1cc(=O)oc2cc(NC(=O)[C@H](Cc3ccccc3)NC(=O)[C@@H]3CCCN3C(=O)[C@H](C)NC(=O)[C@H](C)NC(=O)CCC(=O)O)ccc12 [Suc--Ala--Ala--Pro--Phe--MCA] (Suc-AAPF-{AMC})
Activity (relative) for substrate [1]: < 1%

Cc1cc(=O)oc2cc(NC(=O)[C@@H](N)CCCNC(=N)N)ccc12 [Arg--MCA]
Activity (relative) for substrate [1]: < 1%

O=C(O)CI [iodoacetic acid]
Residual activity of Benz-I [4]: 99 | Residual activity of Benz-II [5]: 93

NC(N)=O [urea]
Residual activity of Benz-I [4, 12]: 23 | Residual activity of Benz-II [5, 12]: 29

CC(C)C[C@H](NP(=O)(O)O[C@@H]1O[C@@H](C)[C@H](O)[C@@H](O)[C@H]1O)C(=O)N[C@@H](Cc1c[nH]c2ccccc12)C(=O)O [phosphoramidon]
Residual activity of Benz-I [4, 7]: 101 | Residual activity of Benz-II [5, 7]: 93 | relative activity (residual) ([6]; Ca2+ +, inhibitor 10 μM): 100%

CC[C@H](C)[C@H](NC(=O)OC(C)(C)C)C(=O)N[C@@H](CCC(=O)O)C(=O)NCC(=O)N[C@@H](CCCNC(=N)N)C(=O)Nc1ccc2c(C)cc(=O)oc2c1 [Boc--Ile--Glu--Gly--Arg--MCA] (Boc-IEGR-{AMC})
Activity (relative) for substrate [1]: 5%

OCCS [2-mercaptoethanol]
Residual activity of Benz-I [4, 8]: 112 | Residual activity of Benz-II [5, 8]: 153 | relative activity (residual) ([6]; Ca2+ +, inhibitor 1 mM): 95%
